This is an account of results in patent US6562464B1, “Utilization of phenylglyoxalic acid esters as photoinitiators” (BASF Aktiengesellschaft, priority 1999, dated 2003).

Format in all cases: physicochemical
The nature of data set [1]: Solubility in Laromer LR 8987. An excerpt: Using a box-type coating bar, a glass plate was coated with this formulation so as to form a film having a thickness of 50 μm or 100 μm. This film was subsequently cured in an IST belt exposure unit at 10 m/min under air.
4 parts of 4,4′-isopropylidenedicyclohexanol di(phenylglyoxylate) [hydrogenated bisphenol-A-di(phenylglyoxylate)] were insoluble in 96 parts of Laromer LR 8987. Therefore, radiation curing was not possible.
However, the solubility was sufficient to prepare and cure a film as described above.

The nature of data set [2]: Solubility in hexanediol diacrylate (HDDA). Set-up: key: sol = soluble; insol = insoluble. The source says:
a) Solubility in hexanediol diacrylate (HDDA)

Data set [3] can be described thus: Weight loss after 3 hours at 130° C. How it is done:
12.0 g of pentaerythritol, 42.8 g of phenylglyoxylic acid and 0.27 g of sulfuric acid are suspended in 17.8 g of methylcyclohexane and the suspension is heated under reflux. The water of esterification is removed via a separating vessel, so that the esterification reaction is at an end after 8 hours. Distillation of the methylcyclohexane leaves a solid melt (acid number 25 mg KOH/g). The weight loss after 3 hours at 130° C. is 7.3%.
21.4 g of 1,4-butanediol diglycidyl ether (Araldit DY026) are mixed with 30 g of phenylglyoxylic acid in the presence of 0.5 g of tetrabutylammonium bromide. The mixture is cautiously heated to 103° C. and is held at this temperature for 5 hours until the acid number has fallen to 7.2 mg KOH/g. The product is a highly viscous liquid (153.6 Pas). The weight loss after 3 hours at 130° C. is 0.7%.
28.84 g of 1,4-bis(hydroxymethyl)cyclohexane, 72.23 g of methyl phenylglyoxylate and 0.82 g of dibutoxydibutyltin are melted over 180° C. in a reaction flask and methanol is distilled off via a column. After virtually all of the theoretical amount of methanol has passed over, the residue is concentrated on a rotary evaporator, the concentrate is digested in ethanol, and the resulting solid is filtered off with suction. The IR and H-NMR spectra correspond to the expected structure. The melting point is 92° C. The weight loss after 3 hours at 130° C. is 0.5%.

Data set [4] in a line: Solubility in an aliphatic urethane acrylate. The settings on record: 2%. As to the method: b) The solubility of 2% each of 1,4-cyclohexanedimethanol di(phenylglyoxylate) and 4,4′-isopropylidenedicyclohexanol di(phenylglyoxylate) in an aliphatic urethane acrylate was also tested.

Read-outs that look alike come from different tables or passages of the source.

As for `O=C(OC1CCC(OC(=O)C(=O)c2ccccc2)CC1)C(=O)c1ccccc1` (stereo not shown) [1,4-cyclohexanediol di(phenylglyoxylate)], the “solubility in Laromer LR 8987” value in data set [1] was “did not dissolve completely”. In addition, the “Solubility in hexanediol diacrylate (HDDA)” value in data set [2] (1%) is listed as “sol”; in data set [2] (2%), “sol”; in data set [2] (3%), “in-”.
Consider `O=CC(=O)OCC(COC(=O)C=O)(COC(=O)C=O)COC(=O)C=O` [Example 1, Pentaerythritol Tetraglyoxylate], for which the “weight loss after 3 hours at 130° C.” value in data set [3] is listed as 7.3%.
The same measure, in the same setting: the value for “1,4-Butanediol Diglycidyl Ether Diglyoxylate [Example 2]” was 0.7%.
Take “4,4′-isopropylidenedicyclohexanol di(phenylglyoxylate)”: the “solubility in Laromer LR 8987” value in data set [1] (4 parts in 96 parts of Laromer LR 8987 (mixture of hexanediol diacrylate and an aliphatic urethane acrylate)) was “insoluble”. Moreover, the “Solubility in hexanediol diacrylate (HDDA)” value in data set [2] (1%) is “sol”; in data set [2] (2%), “in-”. Further, the “solubility in an aliphatic urethane acrylate” value in data set [4] was “insoluble or did not dissolve completely”.
